Test [1] has as its target Adenosine receptor A2a (Homo sapiens, UniProt P29274).
In test [2] the target is T1, Alpha-2C adrenergic receptor (Homo sapiens, UniProt P18825).
T1 sequence (P18825 whole entry): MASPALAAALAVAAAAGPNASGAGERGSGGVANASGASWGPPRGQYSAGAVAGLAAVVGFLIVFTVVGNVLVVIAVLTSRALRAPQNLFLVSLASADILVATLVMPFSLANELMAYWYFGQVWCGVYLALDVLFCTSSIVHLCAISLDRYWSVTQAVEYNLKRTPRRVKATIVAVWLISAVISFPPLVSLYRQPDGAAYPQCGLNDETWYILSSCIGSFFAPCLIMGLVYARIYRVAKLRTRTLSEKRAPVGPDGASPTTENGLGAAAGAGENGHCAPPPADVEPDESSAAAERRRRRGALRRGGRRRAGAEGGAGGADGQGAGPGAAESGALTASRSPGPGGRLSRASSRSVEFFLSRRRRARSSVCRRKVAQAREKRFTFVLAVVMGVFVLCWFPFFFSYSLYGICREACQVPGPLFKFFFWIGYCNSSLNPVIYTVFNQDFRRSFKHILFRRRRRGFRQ
In kind it is functional.

The target of test [3] is T2, Cholecystokinin receptor type A (Homo sapiens, UniProt P32238).
T2 sequence (P32238 whole entry): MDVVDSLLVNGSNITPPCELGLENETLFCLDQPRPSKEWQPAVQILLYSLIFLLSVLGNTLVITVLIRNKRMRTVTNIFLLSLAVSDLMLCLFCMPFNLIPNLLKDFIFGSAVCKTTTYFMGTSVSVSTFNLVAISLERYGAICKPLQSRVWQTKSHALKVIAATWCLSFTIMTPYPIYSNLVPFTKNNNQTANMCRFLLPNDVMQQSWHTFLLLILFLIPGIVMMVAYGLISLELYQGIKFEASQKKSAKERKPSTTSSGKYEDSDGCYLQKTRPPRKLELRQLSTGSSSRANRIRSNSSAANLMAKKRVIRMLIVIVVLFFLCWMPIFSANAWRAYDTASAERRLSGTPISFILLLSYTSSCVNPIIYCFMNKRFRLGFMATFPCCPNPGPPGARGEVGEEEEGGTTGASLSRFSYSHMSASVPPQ

Test [4] has as its target Neuronal acetylcholine receptor subunit alpha-4 (Homo sapiens, UniProt P43681).
Test [5] has as its target Cannabinoid receptor 1 (Homo sapiens, UniProt P21554). In kind it is functional, cell-based.
For test [6], the target named is T3, Endothelin-1 receptor (Homo sapiens, UniProt P25101).
T3 sequence (P25101 whole entry): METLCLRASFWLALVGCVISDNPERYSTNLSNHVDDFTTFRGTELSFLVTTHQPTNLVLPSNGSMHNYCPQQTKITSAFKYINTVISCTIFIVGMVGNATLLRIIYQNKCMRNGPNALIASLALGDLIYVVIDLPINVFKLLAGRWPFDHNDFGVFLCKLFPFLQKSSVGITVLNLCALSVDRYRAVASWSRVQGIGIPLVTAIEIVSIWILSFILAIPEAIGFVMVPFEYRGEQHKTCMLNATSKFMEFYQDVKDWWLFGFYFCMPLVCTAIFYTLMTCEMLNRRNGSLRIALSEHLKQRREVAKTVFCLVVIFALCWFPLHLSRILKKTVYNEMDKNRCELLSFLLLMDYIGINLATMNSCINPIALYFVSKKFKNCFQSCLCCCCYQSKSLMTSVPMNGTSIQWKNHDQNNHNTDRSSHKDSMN

Test [7] deals with Growth hormone secretagogue receptor type 1 (Homo sapiens, UniProt Q92847).
Growth hormone secretagogue receptor type 1, sequence (Q92847 whole entry): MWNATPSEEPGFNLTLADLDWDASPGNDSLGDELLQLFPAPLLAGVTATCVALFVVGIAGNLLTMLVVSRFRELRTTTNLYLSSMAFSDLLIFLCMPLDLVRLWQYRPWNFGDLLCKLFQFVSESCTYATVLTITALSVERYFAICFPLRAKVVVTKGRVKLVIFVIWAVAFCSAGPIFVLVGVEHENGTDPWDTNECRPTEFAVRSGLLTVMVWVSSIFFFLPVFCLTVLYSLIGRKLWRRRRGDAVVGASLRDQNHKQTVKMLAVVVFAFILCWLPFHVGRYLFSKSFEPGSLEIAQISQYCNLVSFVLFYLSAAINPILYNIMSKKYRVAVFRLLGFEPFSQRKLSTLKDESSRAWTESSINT
Test [8] deals with Vasopressin V2 receptor (Homo sapiens, UniProt P30518).
Vasopressin V2 receptor, sequence (P30518 whole entry): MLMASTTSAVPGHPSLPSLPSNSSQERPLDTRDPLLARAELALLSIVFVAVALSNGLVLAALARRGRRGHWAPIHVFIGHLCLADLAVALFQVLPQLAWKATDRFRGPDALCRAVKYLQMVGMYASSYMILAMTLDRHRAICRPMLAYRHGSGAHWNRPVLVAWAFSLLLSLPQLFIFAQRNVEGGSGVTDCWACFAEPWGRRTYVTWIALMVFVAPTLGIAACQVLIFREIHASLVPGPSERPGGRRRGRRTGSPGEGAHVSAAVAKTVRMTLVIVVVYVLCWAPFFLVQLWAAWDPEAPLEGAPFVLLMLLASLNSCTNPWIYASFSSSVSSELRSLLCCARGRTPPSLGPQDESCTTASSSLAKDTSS

Each structure is given as a SMILES string.
Also: assay procedure not described here.

Neuronal acetylcholine receptor subunit alpha-4, sequence (P43681 whole entry): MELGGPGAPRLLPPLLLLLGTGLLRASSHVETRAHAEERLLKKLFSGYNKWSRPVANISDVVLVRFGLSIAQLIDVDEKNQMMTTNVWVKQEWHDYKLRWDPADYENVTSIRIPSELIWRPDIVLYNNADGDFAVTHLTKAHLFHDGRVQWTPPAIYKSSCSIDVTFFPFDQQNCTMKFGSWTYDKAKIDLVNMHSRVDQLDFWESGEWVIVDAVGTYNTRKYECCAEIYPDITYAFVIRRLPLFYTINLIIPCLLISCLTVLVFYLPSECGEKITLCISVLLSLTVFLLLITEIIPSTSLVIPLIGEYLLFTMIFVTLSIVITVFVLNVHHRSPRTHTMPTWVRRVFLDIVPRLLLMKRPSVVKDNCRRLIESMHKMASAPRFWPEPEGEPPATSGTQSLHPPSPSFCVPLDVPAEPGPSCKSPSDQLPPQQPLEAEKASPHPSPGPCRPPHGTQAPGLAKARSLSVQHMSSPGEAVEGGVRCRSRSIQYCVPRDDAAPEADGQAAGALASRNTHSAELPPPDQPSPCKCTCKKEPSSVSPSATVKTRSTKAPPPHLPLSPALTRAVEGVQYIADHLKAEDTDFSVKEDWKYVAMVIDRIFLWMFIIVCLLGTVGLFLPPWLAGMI
Cannabinoid receptor 1, sequence (P21554 whole entry): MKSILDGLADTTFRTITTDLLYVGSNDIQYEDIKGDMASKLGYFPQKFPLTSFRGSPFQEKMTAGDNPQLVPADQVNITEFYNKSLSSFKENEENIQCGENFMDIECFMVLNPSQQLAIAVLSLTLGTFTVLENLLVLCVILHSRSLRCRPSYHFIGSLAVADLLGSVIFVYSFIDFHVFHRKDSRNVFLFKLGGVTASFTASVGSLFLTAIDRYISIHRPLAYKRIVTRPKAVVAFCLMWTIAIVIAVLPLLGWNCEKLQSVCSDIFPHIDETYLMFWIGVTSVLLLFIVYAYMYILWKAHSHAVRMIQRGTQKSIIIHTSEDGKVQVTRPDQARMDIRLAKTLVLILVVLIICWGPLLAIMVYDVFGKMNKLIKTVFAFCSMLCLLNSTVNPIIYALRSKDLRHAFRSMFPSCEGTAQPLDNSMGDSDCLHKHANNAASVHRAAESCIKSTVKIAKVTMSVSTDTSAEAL
Adenosine receptor A2a, sequence (P29274 whole entry): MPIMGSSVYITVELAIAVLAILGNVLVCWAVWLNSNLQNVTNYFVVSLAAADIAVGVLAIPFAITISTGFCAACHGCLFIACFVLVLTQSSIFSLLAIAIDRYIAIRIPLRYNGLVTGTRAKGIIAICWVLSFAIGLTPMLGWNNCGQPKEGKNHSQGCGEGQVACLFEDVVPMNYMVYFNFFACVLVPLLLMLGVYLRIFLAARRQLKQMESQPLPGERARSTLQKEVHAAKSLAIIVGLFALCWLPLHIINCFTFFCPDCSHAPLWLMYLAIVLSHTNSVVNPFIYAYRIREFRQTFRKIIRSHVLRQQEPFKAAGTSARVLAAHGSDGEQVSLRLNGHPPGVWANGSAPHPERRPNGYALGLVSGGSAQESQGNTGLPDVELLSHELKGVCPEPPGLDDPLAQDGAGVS

Take `CC(=N)N1CC[C@H](SC2=C(C(=O)O)N3C(=O)[C@H]([C@@H](C)O)[C@H]3C2)C1`: the AC50 (commonly the concentration at which the activity in the assay is half-maximal) in test [1] is 300 µM; in test [2] it was more than 300 µM; in test [3], more than 300 µM; in test [4], 170 µM; in test [5], more than 300 µM; in test [6] it was more than 300 µM. In test [7], this compound gave a half-maximal activity concentration (AC50) of more than 300 µM.

Take `CC(/C=C1\SC(=S)N(CC(=O)O)C1=O)=C\c1ccccc1`: the AC50 was 26 µM in test [1]; 8.2 µM in test [2]; more than 30 µM in test [8]; more than 30 µM in test [3]; 28 µM in test [4]; more than 30 µM in test [5]. Further, the AC50 in test [6] and in test [7] was more than 30 µM throughout.

As to `CC1(C)S[C@@H]2[C@H](NC(=O)[C@H](N)c3ccc(O)cc3)C(=O)N2[C@H]1C(=O)O` [AMOXICILLIN], the AC50 in test [1], in test [2], in test [8], in test [3], in test [4] and in test [6] was more than 30 µM throughout. This compound came in with an AC50 in test [7] of more than 30 µM.

Consider `O=C1CN2Cc3c(ccc(Cl)c3Cl)N=C2N1` [ANAGRELIDE], for which the AC50 in test [1] was more than 30 µM; in test [2], more than 10 µM; in test [8], more than 30 µM; in test [3], more than 30 µM; in test [4], more than 10 µM; in test [7], more than 30 µM.

With `CNCC[C@@H](Oc1ccccc1C)c1ccccc1` [ATOMOXETINE], the AC50 in test [1], in test [2], in test [8], in test [3], in test [4] and in test [5] was more than 30 µM throughout. Besides, the AC50 in test [6] and in test [7] was more than 30 µM each time.

With `CCc1oc2ccccc2c1C(=O)c1cc(Br)c(O)c(Br)c1` [BENZBROMARONE], the AC50 in test [1] is more than 30 µM; in test [2] it was 26 µM; in test [8] it was more than 30 µM; in test [3] it was more than 30 µM; in test [4] it was more than 30 µM; in test [5] it was more than 30 µM. The AC50 in test [6] and in test [7] was more than 30 µM in each case.

Regarding `C=C(C)[C@@H]1CCC(C)=C[C@H]1c1c(O)cc(CCCCC)cc1O` [CANNABIDIOL], the AC50 in test [1] was more than 30 µM; in test [2], more than 30 µM; in test [3], 18.3 µM; in test [4] it was more than 30 µM; in test [6] it was more than 30 µM; in test [7], more than 30 µM.

On to `CO/N=C(\C(=O)N[C@@H]1C(=O)N2C(C(=O)O)=C(COC(N)=O)CS[C@H]12)c1ccco1` [CEFUROXIME], for which the half-maximal activity concentration (AC50) in test [1], in test [2], in test [8], in test [3], in test [4] and in test [5] was more than 30 µM in each case. In addition, the half-maximal activity concentration (AC50) in test [6] and in test [7] was more than 30 µM in each case.

With `[H]/N=C(\N/C(=N/[H])NCCCCCCNC(=N)NC(=N)Nc1ccc(Cl)cc1)Nc1ccc(Cl)cc1` [CHLORHEXIDINE], the AC50 is more than 30 µM in test [1]; 1.8 µM in test [2]; 3.9 µM in test [8]; 15.9 µM in test [3]; more than 30 µM in test [4]; 1 µM in test [7].

Consider `Clc1cccc(Cl)c1N=C1NCCN1` [CLONIDINE], for which the AC50 was more than 30 µM in test [1]; more than 30 µM in test [8]; more than 30 µM in test [3]; more than 10 µM in test [4]; more than 30 µM in test [5]; more than 30 µM in test [6]. The compound further showed an AC50 in test [7] of more than 30 µM.

`CN1C[C@H](C(=O)N[C@]2(C)O[C@@]3(O)[C@@H]4CCCN4C(=O)[C@H](Cc4ccccc4)N3C2=O)C[C@@H]2c3cccc4[nH]cc(c34)C[C@H]21` [DIHYDROERGOTAMINE]: the AC50 is more than 30 µM in test [1]; more than 30 µM in test [8]; more than 30 µM in test [3]; more than 10 µM in test [4]; more than 30 µM in test [5]; more than 30 µM in test [6]. Further, in test [7], the AC50 turned out to be 4.39 µM.

Turning to `CNCC[C@H](Oc1cccc2ccccc12)c1cccs1` [DULOXETINE], the AC50 in test [1] is more than 30 µM; in test [2], 1.4 µM; in test [8], more than 30 µM; in test [3] it was more than 30 µM; in test [4], more than 10 µM; in test [5], more than 30 µM. The compound also had an AC50 in test [7] of 14.7 µM.

In the case of `CC1(C)O[C@@H]2C[C@H]3[C@@H]4C[C@H](F)C5=CC(=O)C=C[C@]5(C)[C@H]4[C@@H](O)C[C@]3(C)[C@]2(C(=O)CO)O1` [FLUNISOLIDE], the AC50 in test [1], in test [2], in test [3], in test [4], in test [5] and in test [6] was more than 30 µM in each case. Also, in test [7], the AC50 is more than 30 µM.

On to `C[C@H]1Oc2cc(cnc2N)-c2c(nn(C)c2C#N)CN(C)C(=O)c2ccc(F)cc21` [LORLATINIB], for which the AC50 in test [1], in test [2], in test [3], in test [4], in test [5] and in test [6] was more than 30 µM throughout. Moreover, the AC50 in test [7] is more than 30 µM.

For the compound `CNCCC=C1c2ccccc2CCc2ccccc21` [NORTRIPTYLINE], the half-maximal activity concentration (AC50) in test [1], in test [8], in test [3], in test [4], in test [6] and in test [7] was more than 30 µM in each case.

On to `CCOc1cc(CC(=O)N[C@@H](CC(C)C)c2ccccc2N2CCCCC2)ccc1C(=O)O` [REPAGLINIDE], for which the AC50 in test [1], in test [2], in test [3], in test [4], in test [5] and in test [6] was more than 30 µM in each case. The AC50 in test [7] is more than 30 µM.

Consider `NC(=O)c1ncn([C@@H]2O[C@H](CO)[C@@H](O)[C@H]2O)n1` [RIBAVIRIN], for which the AC50 in test [1] was more than 10 µM; in test [2], more than 10 µM; in test [8], more than 10 µM; in test [3], more than 10 µM; in test [4], more than 10 µM; in test [5] it was more than 30 µM. In addition, in test [7], the AC50 was more than 10 µM.

With `CCCN(CCc1cccs1)[C@H]1CCc2c(O)cccc2C1` [ROTIGOTINE], the AC50 in test [1] was more than 30 µM; in test [2], 0.4 µM; in test [3], more than 30 µM; in test [4], more than 30 µM; in test [5] it was 20 µM; in test [6], more than 30 µM. This compound also had a half-maximal activity concentration (AC50) in test [7] of 29 µM.

Consider `CC[C@H]1OC(=O)[C@H](C)[C@@H](O[C@H]2C[C@@](C)(OC)[C@@H](O)[C@H](C)O2)[C@H](C)[C@@H](O[C@@H]2O[C@H](C)C[C@H](N(C)C)[C@H]2O)[C@](C)(O)C[C@@H](C)/C(=N\OCOCCOC)[C@H](C)[C@@H](O)[C@]1(C)O` [ROXITHROMYCIN], for which the AC50 in test [1], in test [2], in test [3], in test [4], in test [5] and in test [6] was more than 30 µM each time. Further, the AC50 in test [7] is more than 30 µM.

As for `Cn1c(=O)c2[nH]cnc2n(C)c1=O` [THEOPHYLLINE], the AC50 in test [2] is more than 10 µM; in test [8], more than 30 µM; in test [3] it was more than 30 µM; in test [4], more than 10 µM; in test [5] it was more than 30 µM; in test [6] it was more than 30 µM. In test [7], this compound yielded an AC50 of more than 30 µM.

For the compound `CN1CCN(CCCN2c3ccccc3Sc3ccc(S(=O)(=O)N(C)C)cc32)CC1` [THIOPROPERAZINE], the results for the AC50 in test [2] and in test [5] were 2.6 µM and more than 30 µM, respectively.

(Values after ChEMBL document CHEMBL5291721, “A preclinical secondary pharmacology resource illuminates target-adverse drug reaction associations of marketed drugs” (Nat Commun, 2023).)
